The text below walks through data of patent US5451584A, “N-alkynyl carboxamides as sertonergic agents” (American Home Products Corporation, priority 1994, dated 1995).

Structures are written as SMILES.

In test [1] the target is T1, 5-HT1A serotonin receptor (Rattus norvegicus, UniProt P19327).
T1 construct: from tissue; inferred from the cited Hall et al. 1985 procedure
T1 sequence (P19327 1-422): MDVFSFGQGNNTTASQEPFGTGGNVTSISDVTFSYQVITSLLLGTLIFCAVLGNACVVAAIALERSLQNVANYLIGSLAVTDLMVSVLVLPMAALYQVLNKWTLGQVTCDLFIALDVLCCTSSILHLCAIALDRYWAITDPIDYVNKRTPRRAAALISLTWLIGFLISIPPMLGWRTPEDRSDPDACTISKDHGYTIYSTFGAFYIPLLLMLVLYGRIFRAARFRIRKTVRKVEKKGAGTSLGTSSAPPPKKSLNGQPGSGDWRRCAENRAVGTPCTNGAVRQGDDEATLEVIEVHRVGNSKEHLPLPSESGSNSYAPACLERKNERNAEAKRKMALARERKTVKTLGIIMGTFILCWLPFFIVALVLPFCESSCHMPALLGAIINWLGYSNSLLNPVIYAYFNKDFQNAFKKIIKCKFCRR
As to the kind of experiment: displacement of [^3 H] 8-OHDPAT (dipropylaminotetralin) from the 5-HT1A serotonin receptor. As to conditions: procedure of Hall et al., read-out: 5-HT1A Binding (IC50). As to the method:
The compounds of this invention are prepared by conventional methods. For example, the appropriately substituted "acid" is transformed in the presence of a coupling agent like N,N-bis(2-oxo-3-oxazolidinyl)phosphoramidic chloride to yield the desired products ( 1 ). [drawing 3] High affinity for the serotonin 5-HT1A receptor was established by testing the claimed compound's ability to displace [^3 H] 8-OHDPAT (dipropylaminotetralin) from the 5-HT1A serotonin receptor following the procedure of Hall et al., J. Neurochem. 44, 1685 (1985). […] The anxiolytic activity of buspirone is believed to be, at least partially, due to its 5-HT1A receptor affinity (Vander Maclen et al., Eur. J. Pharmacol. 1986, 129 (1-2) […]).

The target of test [2] is T1, 5-HT1A serotonin receptor. As to conditions: buspirone, standard for anxiolytic activity; cited from earlier work.

As usually defined, the IC50 is the concentration needed to halve the response being measured. For `C#CCNC(=O)C(CCN1CCN(c2ccccc2OC)CC1)c1ccccc1` (stereo not drawn) [Example 1, 4-[4-(2-Methoxy-phenyl)-piperazin-1]-2-phenyl-N-prop-2-ynyl-butyramide], in test [1], the IC50 amounted to 44.9 nM.
For the compound `C#CCN(C)C(=O)C(CCN1CCN(c2ccccc2OC)CC1)c1ccccc1` (stereo not drawn) [Example 2, 4-[4-(2-Methoxy-phenyl)-piperazin-1-yl]-N-methyl-2-phenyl-N-prop-2-ynyl-butyramide], the IC50 in test [1] was 19.4 nM.
As to `O=C1CC2(CCCC2)CC(=O)N1CCCCN1CCN(c2ncccn2)CC1` [buspirone], in test [2], the “affinity for the 5-HT1A serotonin receptor subtype (in words)” value is recorded as “potent affinity”.
